According to ChEMBL document CHEMBL1908105, “UDP-glucuronosyltransferases and clinical drug-drug interactions” (Pharmacol Ther, 2005):
Values joined by “and” are separate entries in the source; they are usually repeats but may differ in a detail not shown here. Identical values can stand only once.

Assays:
[1] = Inhibition of ciramadol glucuronidation by human UGT enzymes from liver microsomes; parameters: species or system Microsome
[2] = Inhibition of codeine glucuronidation by human UGT enzymes from liver microsomes; parameters: species or system Microsome
[3] = Inhibition of morphine glucuronidation by human UGT enzymes from liver microsomes; parameters: species or system Microsome
[4] = Inhibition of AZT glucuronidation by human UGT enzymes from liver microsomes; parameters: species or system Microsome
[5] = Inhibition of morphine (6-O-glucuronidation) glucuronidation by human UGT enzymes from liver microsomes; parameters: species or system Microsome
[6] = Inhibition of morphine (3-O-glucuronidation) glucuronidation by human UGT enzymes from liver microsomes; parameters: species or system Microsome
[7] = biological target: T1, UDP-glucuronosyltransferase 1A4 (Homo sapiens, UniProt P22310); assay: Drug glucuronidation reaction catalyzed by human recombinant UGT1A4
T1 sequence (P22310 whole entry): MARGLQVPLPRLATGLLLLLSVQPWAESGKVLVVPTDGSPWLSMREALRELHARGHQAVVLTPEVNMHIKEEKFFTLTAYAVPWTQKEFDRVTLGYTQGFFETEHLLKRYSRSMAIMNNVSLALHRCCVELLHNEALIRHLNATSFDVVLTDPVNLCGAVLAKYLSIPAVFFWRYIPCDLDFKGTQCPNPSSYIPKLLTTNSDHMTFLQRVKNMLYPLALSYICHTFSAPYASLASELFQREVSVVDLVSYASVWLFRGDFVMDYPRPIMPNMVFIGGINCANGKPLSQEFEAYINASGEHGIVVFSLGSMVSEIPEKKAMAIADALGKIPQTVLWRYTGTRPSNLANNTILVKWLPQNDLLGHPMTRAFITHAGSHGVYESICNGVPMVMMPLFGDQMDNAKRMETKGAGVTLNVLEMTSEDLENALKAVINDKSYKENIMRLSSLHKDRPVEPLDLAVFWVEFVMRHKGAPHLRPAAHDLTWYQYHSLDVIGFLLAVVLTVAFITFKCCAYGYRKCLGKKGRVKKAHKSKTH

[8] = Inhibition of mycophenolic acid (0.5 mM) glucuronidation by human kidney microsomes; parameters: species or system Microsome
[9] = Inhibition of mycophenolic acid (1 mM) glucuronidation by human UGT enzymes from liver microsomes; parameters: species or system Microsome
[10] = Inhibition of 4-methylumbelliferone glucuronidation by human UGT enzymes from liver microsomes; parameters: species or system Microsome
[11] = biological target: T2, UDP-glucuronosyltransferase 1A3 (Homo sapiens, UniProt P35503); assay: Drug glucuronidation reaction catalyzed by human recombinant UGT1A3
T2 sequence (P35503 whole entry): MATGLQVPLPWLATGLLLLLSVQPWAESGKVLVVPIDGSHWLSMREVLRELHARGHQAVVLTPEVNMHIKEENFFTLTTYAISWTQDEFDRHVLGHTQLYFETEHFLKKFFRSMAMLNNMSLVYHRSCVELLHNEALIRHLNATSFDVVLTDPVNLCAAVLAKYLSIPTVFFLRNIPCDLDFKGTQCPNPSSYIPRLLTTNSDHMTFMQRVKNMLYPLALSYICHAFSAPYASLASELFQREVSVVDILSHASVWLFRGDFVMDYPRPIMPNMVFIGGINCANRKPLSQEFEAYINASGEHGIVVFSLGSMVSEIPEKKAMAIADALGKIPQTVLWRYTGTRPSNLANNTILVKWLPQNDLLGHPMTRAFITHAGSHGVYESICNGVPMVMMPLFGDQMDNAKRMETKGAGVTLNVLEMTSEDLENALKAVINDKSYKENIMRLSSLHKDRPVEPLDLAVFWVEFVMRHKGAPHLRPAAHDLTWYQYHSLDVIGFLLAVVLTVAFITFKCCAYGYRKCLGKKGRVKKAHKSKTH

[12] = biological target: T3, UDP-glucuronosyltransferase 2B7 (Homo sapiens, UniProt P16662); assay: (§1) Drug glucuronidation reaction catalyzed by human recombinant UGT2B7
T3 sequence (P16662 whole entry): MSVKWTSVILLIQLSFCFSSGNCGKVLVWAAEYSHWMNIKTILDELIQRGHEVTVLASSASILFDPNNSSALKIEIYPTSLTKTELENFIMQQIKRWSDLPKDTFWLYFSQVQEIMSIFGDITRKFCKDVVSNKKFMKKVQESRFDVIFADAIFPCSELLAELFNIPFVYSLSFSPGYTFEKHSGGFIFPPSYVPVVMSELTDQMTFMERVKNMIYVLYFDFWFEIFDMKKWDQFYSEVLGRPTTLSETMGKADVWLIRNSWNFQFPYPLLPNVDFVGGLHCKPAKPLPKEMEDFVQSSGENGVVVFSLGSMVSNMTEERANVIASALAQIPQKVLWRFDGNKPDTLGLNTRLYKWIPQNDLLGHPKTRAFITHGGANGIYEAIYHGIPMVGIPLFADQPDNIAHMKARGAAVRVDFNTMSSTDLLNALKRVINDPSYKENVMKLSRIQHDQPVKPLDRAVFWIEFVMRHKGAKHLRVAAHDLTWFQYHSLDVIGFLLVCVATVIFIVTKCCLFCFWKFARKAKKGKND

UGT2B7 = biological target: T4, UGT2B7 (Homo sapiens, UniProt P16662); assay: as §1; conditions: recombinant UGT2B7
T4 sequence (P16662 whole entry): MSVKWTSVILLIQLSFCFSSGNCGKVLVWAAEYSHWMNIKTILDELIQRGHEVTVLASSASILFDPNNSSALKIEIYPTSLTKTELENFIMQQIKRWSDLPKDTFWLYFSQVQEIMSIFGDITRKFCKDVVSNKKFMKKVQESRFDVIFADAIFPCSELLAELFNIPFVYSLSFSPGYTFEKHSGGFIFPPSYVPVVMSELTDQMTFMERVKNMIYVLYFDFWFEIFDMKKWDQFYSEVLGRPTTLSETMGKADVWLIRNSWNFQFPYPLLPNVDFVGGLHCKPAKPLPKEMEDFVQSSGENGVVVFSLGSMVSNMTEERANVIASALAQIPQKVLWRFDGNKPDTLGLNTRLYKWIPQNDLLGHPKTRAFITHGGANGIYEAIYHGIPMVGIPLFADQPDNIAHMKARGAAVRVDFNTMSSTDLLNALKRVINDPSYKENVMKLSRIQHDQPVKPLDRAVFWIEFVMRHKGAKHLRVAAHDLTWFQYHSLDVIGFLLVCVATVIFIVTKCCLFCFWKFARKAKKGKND

[13] = substrate: CCc1c2c(nc3ccc(O)cc13)-c1cc3c(c(=O)n1C2)COC(=O)[C@]3(O)CC; assay: (§2) Drug glucuronidation reaction catalyzed by human recombinant UGT1A7
[14] = substrate: COc1c(C)c2c(c(O)c1C/C=C(\C)CCC(=O)O)C(=O)OC2; assay: as §2
[15] = substrate: CCc1c2c(nc3ccc(O)cc13)-c1cc3c(c(=O)n1C2)COC(=O)[C@]3(O)CC; assay: (§3) Drug glucuronidation reaction catalyzed by human recombinant UGT1A6
[16] = substrate: CN1CC[C@]23c4c5ccc(O[C@@H]6O[C@H](C(=O)O)[C@@H](O)[C@H](O)[C@H]6O)c4O[C@H]2[C@@H](O)C=C[C@H]3[C@H]1C5; assay: as §3

CN1C(=O)CN=C(c2ccccc2)c2cc(Cl)ccc21 [DIAZEPAM]
Ki [1]: 40 µM | Ki [2]: 180 µM | Ki [3]: 120 µM | Ki [4]: 300 µM

CN(C)CCCN1c2ccccc2CCc2ccc(Cl)cc21 [CLOMIPRAMINE]
Ki [5]: 56 µM | Ki [6]: 90 µM

C=CCN1CC[C@]23c4c5ccc(O)c4O[C@H]2C(=O)CC[C@@]3(O)[C@H]1C5 [NALOXONE]
Ki [3]: 630 µM

CNCCC=C1c2ccccc2CCc2ccccc21 [NORTRIPTYLINE]
Ki [5]: 27 µM | Ki [6]: 33 µM

CN1C(=O)CN=C(c2ccccc2F)c2cc([N+](=O)[O-])ccc21 [FLUNITRAZEPAM]
Ki [4]: 190 µM

CCOC(=O)Nc1ccc(NCc2ccc(F)cc2)cc1N [EZOGABINE]
Km [7]: 322 µM

COc1ccc2cc([C@H](C)C(=O)O)ccc2c1 [NAPROXEN]
Ki [4]: 172 µM and 1100 µM

O=C(O)c1cccnc1Nc1cccc(C(F)(F)F)c1 [NIFLUMIC ACID]
IC50 [8]: 8 µM | IC50 [9]: 8 µM

CN(C)CCCN1c2ccccc2CCc2ccccc21 [IMIPRAMINE]
Km [7]: 310 µM | Vmax [7]: 180 pmol/min/mg protein

Cc1cccc(Nc2ccccc2C(=O)O)c1C [MEFENAMIC ACID]
IC50 [8]: 49 µM | IC50 [9]: 63 µM

O=C(O)c1ccccc1Nc1cccc(C(F)(F)F)c1 [FLUFENAMIC ACID]
IC50 [8]: 13 µM | IC50 [9]: 19 µM

C#C[C@]1(O)CC[C@H]2[C@@H]3CCc4cc(O)ccc4[C@H]3CC[C@@]21C [ETHINYL ESTRADIOL]
Ki [4]: 38 µM and 150 µM

O=C(N[C@H](CO)[C@H](O)c1ccc([N+](=O)[O-])cc1)C(Cl)Cl [CHLORAMPHENICOL]
Ki [2]: 270 µM | Ki [3]: 980 µM | Ki [4]: 250 µM

CN/C(=N\CCSCc1nc[nH]c1C)NC#N [CIMETIDINE]
Ki [4]: 11000 µM

CN(C)CCC=C1c2ccccc2CCc2ccccc21 [AMITRIPTYLINE]
Ki [5]: 80 µM | Ki [2]: 130 µM | Ki [6]: 160 µM

Nc1ccc(S(=O)(=O)Nc2nccs2)cc1 [SULFATHIAZOLE]
Ki [4]: 24000 µM

C[C@]12CC[C@H]3[C@@H](CCC4=CC(=O)CC[C@@]43C)[C@@H]1CC[C@@H]2O [TESTOSTERONE]
Ki [4]: 250 µM

O=C1C(CC[S+]([O-])c2ccccc2)C(=O)N(c2ccccc2)N1c1ccccc1 (configuration not stated) [SULFINPYRAZONE]
Ki [4]: 2100 µM

CC(C(=O)O)c1cccc(Oc2ccccc2)c1 (configuration not stated) [FENOPROFEN]
Ki [10]: 220 µM

Cc1noc(NS(=O)(=O)c2ccc(N)cc2)c1C [SULFISOXAZOLE]
Ki [4]: 47000 µM

CN1C(=O)C(O)N=C(c2ccccc2)c2cc(Cl)ccc21 (configuration not stated) [TEMAZEPAM]
Ki [10]: 217 µM | Ki [4]: 580 µM

Cc1cc(CC(=O)O)n(C)c1C(=O)c1ccc(Cl)cc1 [ZOMEPIRAC]
Ki [4]: 2100 µM

CN1CCC(=C2c3ccccc3CC(=O)c3sccc32)CC1 [KETOTIFEN]
Vmax [7]: 130 pmol/min/mg protein and 140 pmol/min/mg protein | Vmax [11]: 6 pmol/min/mg protein and 12 pmol/min/mg protein

O=C1Nc2ccc(Cl)cc2C(c2ccccc2Cl)=NC1O (configuration not stated) [LORAZEPAM]
Ki [1]: 140 µM | Ki [3]: 160 µM | Ki [4]: 160 µM

CCCCC1C(=O)N(c2ccccc2)N(c2ccccc2)C1=O [PHENYLBUTAZONE]
Ki [2]: 1700 µM | Ki [4]: 1400 µM

COc1ccc2c(c1)c(CC(=O)O)c(C)n2C(=O)c1ccc(Cl)cc1 [INDOMETHACIN]
Ki [4]: 200 µM

O=C(O)c1cc(-c2ccc(F)cc2F)ccc1O [DIFLUNISAL]
IC50 [8]: 122 µM | IC50 [9]: 109 µM

Nc1ccc(S(=O)(=O)c2ccc(N)cc2)cc1 [DAPSONE]
Ki [4]: 1700 µM

Cc1cn([C@H]2C[C@H](N=[N+]=[N-])[C@@H](CO)O2)c(=O)[nH]c1=O [ZIDOVUDINE]
Vmax [12]: 210 pmol/min/mg protein | Km (UGT2B7): 770 µM

B1: UDP-glucuronosyltransferase 1A7 (Homo sapiens) (protein)
chain: MARAGWTGLLPLYVCLLLTCGFAKAGKLLVVPMDGSHWFTMQSVVEKLILRGHEVVVVMPEVSWQLGRSLNCTVKTYSTSYTLEDQDREFMVFADARWTAPLRSAFSLLTSSSNGIFDLFFSNCRSLFNDRKLVEYLKESCFDAVFLDPFDACGLIVAKYFSLPSVVFARGIFCHYLEEGAQCPAPLSYVPRLLLGFSDAMTFKERVWNHIMHLEEHLFCPYFFKNVLEIASEILQTPVTAYDLYSHTSIWLLRTDFVLEYPKPVMPNMIFIGGINCHQGKPVPMEFEAYINASGEHGIVVFSLGSMVSEIPEKKAMAIADALGKIPQTVLWRYTGTRPSNLANNTILVKWLPQNDLLGHPMTRAFITHAGSHGVYESICNGVPMVMMPLFGDQMDNAKRMETKGAGVTLNVLEMTSEDLENALKAVINDKSYKENIMRLSSLHKDRPVEPLDLAVFWVEFVMRHKGAPHLRPAAHDLTWYQYHSLDVIGFLLAVVLTVAFITFKCCAYGYRKCLGKKGRVKKAHKSKTH
Km [13]: 5 µM | Vmax [13]: < 1e-06 µmol/min/mg | Km [14]: 30 µM | Vmax [14]: 0.00037 µmol/min/mg

B2: UDP-glucuronosyltransferase 1A6 (Homo sapiens) (protein)
chain: MACLLRSFQRISAGVFFLALWGMVVGDKLLVVPQDGSHWLSMKDIVEVLSDRGHEIVVVVPEVNLLLKESKYYTRKIYPVPYDQEELKNRYQSFGNNHFAERSFLTAPQTEYRNNMIVIGLYFINCQSLLQDRDTLNFFKESKFDALFTDPALPCGVILAEYLGLPSVYLFRGFPCSLEHTFSRSPDPVSYIPRCYTKFSDHMTFSQRVANFLVNLLEPYLFYCLFSKYEELASAVLKRDVDIITLYQKVSVWLLRYDFVLEYPRPVMPNMVFIGGINCKKRKDLSQEFEAYINASGEHGIVVFSLGSMVSEIPEKKAMAIADALGKIPQTVLWRYTGTRPSNLANNTILVKWLPQNDLLGHPMTRAFITHAGSHGVYESICNGVPMVMMPLFGDQMDNAKRMETKGAGVTLNVLEMTSEDLENALKAVINDKSYKENIMRLSSLHKDRPVEPLDLAVFWVEFVMRHKGAPHLRPAAHDLTWYQYHSLDVIGFLLAVVLTVAFITFKCCAYGYRKCLGKKGRVKKAHKSKTH
Km [15]: 97 µM | Vmax [15]: 2.8e-05 µmol/min/mg | Km [16]: 18000 µM | Vmax [16]: 2.1e-05 µmol/min/mg
